Experimental data as given in patent US20230011869A1 (Hoffmann-La Roche Inc., priority 2018, published 2023).
Counter-ions that a name gives are not always drawn. Like-named read-outs stand apart in the source and are kept apart here.

Tested on: Acinetobacter baumannii ATCC17961
Assay: Antimicrobial susceptibility testing: 90% growth inhibitory concentration (IC90) determination, Iso-Sensitest broth
Type: cell-based
Settings: Acinetobacter baumannii, ATCC17961, 16 h, read-out: ATCC17961 IC90
Procedure, shortened: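 Twofold serial dilutions (e.g. 50 to 0.097 μM final) in Iso-Sensitest broth, inoculum 5×10^(5) CFU/ml, incubated at 35±2° C. OD600 read every 20 minutes over 16 h; IC90 derived from growth inhibition during logarithmic phase.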

[1] = 90% growth inhibitory concentration, Acinetobacter baumannii ATCC17961, Iso-Sensitest broth, OD 600 nm over 16 h

Row | SMILES | IC90 [1] | IC90
1 | COc1ccc(-c2cnc3c(Nc4ccc(C(=O)N5CCN(C(=O)CC[C@H](NC(=O)[C@@H](N)CCCCN)C(=O)O)CC5)c(C)c4)nccn23)c(F)c1F [Example 531, (2S)-2-[[(2S)-2,6-diaminohexanoyl]amino]-5-[4-[4-[[3-(2,3-difluoro-4-methoxyphenyl)imidazo[1,2-a]pyrazin-8-yl]amino]-2-methylbenzoyl]piperazin-1-yl]-5-oxopentanoic acid; hydrochloride] | – | 686 nM
2 | COc1ccc(-c2cnc3c(Nc4ccc(C(=O)N5CCN(C(=O)[C@H](CCCN)NC(=O)[C@@H](N)CCC(=O)O)CC5)c(C)c4)nccn23)c(F)c1F [Example 535, (4S)-4-amino-5-[[2S)-5-amino-1-[4-[4-[[3-(2,3-difluoro-4-methoxyphenyl)imidazo[1,2-a]pyrazin-8-yl]amino]-2-methylbenzoyl]piperazin-1-yl]-1-oxopentan-2-yl]amino]-5-oxopentanoic acid; hydrochloride] | 1920 nM | –
3 | COc1ccc(-c2cnc3c(Nc4ccc(C(=O)N5CCN(C(=O)[C@H](CCCNC(=N)N)NC(=O)[C@@H](N)CCC(=O)O)CC5)c(C)c4)nccn23)c(F)c1F [Example 555, (S)-4-amino-5-(((S)-1-(4-(4-((3-(2,3-difluoro-4-methoxyphenyl)imidazo[1,2-a]pyrazin-8-yl)amino)-2-methylbenzoyl)piperazin-1-yl)-5-guanidino-1-oxopentan-2-yl)amino)-5-oxopentanoic acid trihydrochloride] | 704 nM | –
4 | Cc1cc(Nc2nccn3c(-c4ccc(OC(F)F)cc4)cnc23)ccc1C(=O)N1CCN(C(=O)OC(C)(C)C)CC1 [Example 556, tert-butyl 4-(4-((3-(4-(difluoromethoxy)phenyl)imidazo [1,2-a]pyrazin-8-yl)amino)-2-methylbenzoyl)piperazine-1-carboxylate] | 418 nM | –
5 | COc1ccc(-c2cnc3c(Nc4ccc(C(=O)N5CCC(C(=O)NCC(O)Cn6cccn6)CC5)c(C)c4)nccn23)c(F)c1F (centres unmarked) [Example 570, 1-(4-((3-(2,3-difluoro-4-methoxyphenyl)imidazo[1,2-a]pyrazin-8-yl)amino)-2-methylbenzoyl)-N-(2-hydroxy-3-(1H-pyrazol-1-yl)propyl)piperidine-4-carboxamide] | 245 nM | –
6 | COc1ccc(-c2cnc3c(Nc4ccc(C(=O)N5CCC(C(=O)NCC(O)CN6CCOC(C)C6)CC5)c(C)c4)nccn23)c(F)c1F (centres unmarked) [Example 571, 1-(4-((3-(2,3-difluoro-4-methoxyphenyl)imidazo[1,2-a]pyrazin-8-yl)amino)-2-methylbenzoyl)-N-(2-hydroxy-3-(2-methylmorpholino)propyl) piperidine-4-carboxamide] | 265 nM | –
7 | COc1ccc(-c2cnc3c(Nc4ccc(C(=O)N5CCC(C(=O)NCC(O)CN6CCOCC6)CC5)c(C)c4)nccn23)c(F)c1F (centres unmarked) [Example 572, 1-(4-((3-(2,3-difluoro-4-methoxyphenyl)imidazo[1,2-a]pyrazin-8-yl)amino)-2-methylbenzoyl)-N-(2-hydroxy-3-morpholinopropyl)piperidine-4-carboxamide] | 216 nM | –
8 | COc1ccc(-c2cnc3c(Nc4ccc(C(=O)N5CCN(C(=O)[C@@H]6CC(F)(F)CN6)CC5)c(C)c4)nccn23)c(F)c1F [Example 573, (S)-(4-(4-((3-(2,3-difluoro-4-methoxyphenyl)imidazo[1,2-a]pyrazin-8-yl)amino)-2-methylbenzoyl)piperazin-1-yl)(4,4-difluoropyrrolidin-2-yl)methanone hydrochloride] | 310 nM | –
9 | COc1ccc(-c2cnc3c(Nc4cc(C)c(C(=O)N5CCN(C(=O)[C@@H]6C[C@@H](O)CN6)CC5)c(Cl)c4)nccn23)c(F)c1F [Example 575, (4-(2-chloro-4-((3-(2,3-difluoro-4-methoxyphenyl)imidazo[1,2-a]pyrazin-8-yl)amino)-6-methylbenzoyl)piperazin-1-yl)((2S,4R)-4-hydroxypyrrolidin-2-yl)methanone dihydrochloride] | 583 nM | –
10 | COc1ccc(-c2cnc3c(Nc4ccc(C(=O)N5CCN(S(=O)(=O)[C@@H]6CCNC6)CC5)c(C)c4)nccn23)c(F)c1F [Example 579, (R)-(4-((3-(2,3-difluoro-4-methoxyphenyl)imidazo[1,2-a]pyrazin-8-yl)amino)-2-methylphenyl)(4-(pyrrolidin-3-ylsulfonyl)piperazin-1-yl)methanone] | 258 nM | –
11 | COc1ccc(-c2cnc3c(Nc4ccc(C(=O)N5C[C@H]6CNC[C@@H](C5)O6)c(C)c4)nccn23)c(F)c1F [Example 581, ((1R,5S)-9-oxa-3,7-diazabicyclo[3.3.1]nonan-3 - yl)(4-((3-(2,3-difluoro-4-methoxyphenyl)imidazo[1,2-a]pyrazin-8-yl)amino)-2-methylphenyl)methanone dihydrochloride] | 464 nM | –
12 | COc1ccc(-c2cnc3c(Nc4ccc(C(=O)N5CCN(C(=O)[C@@H]6C[C@@](O)(C(F)(F)F)CN6)CC5)c(C)c4)nccn23)c(F)c1F [Example 582, (4-(4-((3-(2,3-difluoro-4-methoxyphenyl)imidazo[1,2-a]pyrazin-8-yl)amino)-2-methylbenzoyl)piperazin-1-yl)((2S,4S)-4-hydroxy-4-(trifluoromethyl)pyrrolidin-2-yl)methanone hydrochloride] | 273 nM | –
13 | CCc1cc(Nc2nccn3c(-c4ccc(OC)c(F)c4F)cnc23)ccc1C(=O)N1CC(OCCN)C1 [Example 585, (3-(2-aminoethoxy)azetidin-1-yl)(4-((3-(2,3-difluoro-4-methoxyphenyl)imidazo[1,2-a]pyrazin-8-yl)amino)-2-ethylphenyl)methanone formate] | – | 94 nM
14 | COc1cc(Nc2nccn3c(-c4ccc(OC)c(F)c4F)cnc23)ccc1C(=O)N1CCN(C(=O)C2CCNCC2)CC1 [Example 587, (4-(4-((3-(2,3-difluoro-4-methoxyphenyl)imidazo[1,2-a]pyrazin-8-yl)amino)-2-methoxybenzoyl)piperazin-1-yl)(piperidin-4-yl)methanone formate] | – | 214 nM
15 | CCc1cc(Nc2nccn3c(-c4ccc(OC(F)F)c(F)c4F)cnc23)ccc1C(=O)N1CCN(C(=O)C2CCN(CC3CNC3)CC2)CC1 [Example 588, (1-(azetidin-3-ylmethyl)piperidin-4-yl)(4-(4-((3-(4-(difluoromethoxy)-2,3-difluorophenyl)imidazo[1,2-a]pyrazin-8-yl)amino)-2-ethylbenzoyl)piperazin-1-yl)methanone tris(2,2,2-trifluoroacetate)] | – | 116 nM

More lines, main results first:

Row | IC90 [1] | SMILES | IC90
16 | 88 nM | Cc1cc(Nc2nccn3c(-c4ccc(OCC#N)c(F)c4Cl)cnc23)ccc1C(=O)N1CCC(C(=O)N2CCN[C@H](CO)C2)CC1 [Example 538, 2-[3-chloro-2-fluoro-4-[8-[4-[4-[(3S)-3-(hydroxymethyl)piperazine-1-carbonyl]piperidine-1-carbonyl]-3-methylanilino]imidazo[1,2-a]pyrazin-3-yl]phenoxy]acetonitrile; for-mic acid] | –
17 | 38 nM | Cc1cc(Nc2nccn3c(-c4ccc(OCC#N)c(F)c4F)cnc23)ccc1C(=O)N1CCN(C(=O)CN(C)C)CC1 [Example 545, 2-[4-[8-[4-[4-[2-(dimethylamino)acetyl]piper-azine-1-carbonyl]-3-methylanilino]imidazo[1,2-a]pyrazin-3-yl]-2,3-difluorophenoxy]acetonitrile; formic acid] | –
18 | 205 nM | COc1ccc(-c2cnc3c(Nc4ccc(C(=O)N5CCC(C(=O)N6C[C@@H](O)[C@@H](O)[C@@H](O)C6)CC5)c(C)c4)nccn23)c(F)c1F [Example 569, (1-(4-((3-(2,3-difluoro-4-methoxyphenyl)imidazo[1,2-a]pyrazin-8-yl)amino)-2-methylbenzoyl)piperidin-4-yl)((3R,4s,5S)-3,4,5-trihydroxypiperidin-1-yl)methanone] | –
19 | 265 nM | COc1ccc(-c2cnc3c(Nc4ccc(C(=O)N5CCN(C(=O)[C@@H]6C[C@@H](C#N)CN6)CC5)c(C)c4)nccn23)c(F)c1F [Example 574, (3R,5S)-5-[4-[4-[[3-(2,3-difluoro-4-methoxyphenyl)imidazo[1,2-a]pyrazin-8-yl]amino]-2-methylbenzoyl]piperazine-1-carbonyl]pyrrolidine-3-carbonitrile;hydrochloride] | –
20 | 236 nM | COc1ccc(-c2cnc3c(Nc4ccc(C(=O)N5CCN(C(=O)[C@@H]6C[C@@H](O)CN6)CC5)c(C)c4F)nccn23)c(F)c1F [Example 576, (4-(4-((3-(2,3-difluoro-4-methoxyphenyl)imidazo[1,2-a]pyrazin-8-yl)amino)-3-fluoro-2-methylbenzoyl)piperazin-1-yl)((2S,4R)-4-hydroxypyrrolidin-2-yl)methanone dihydrochloride] | –
21 | 601 nM | CCc1cc(Nc2nccn3c(-c4ccc(OC)c(F)c4F)cnc23)ccc1C(=O)N1CCN(CCO[C@@H]2O[C@H](CO)[C@H](O)[C@H](O)[C@H]2O)CC1 [Example 580, (4-((3-(2,3-difluoro-4-methoxyphenyl)imidazo[1,2-a]pyrazin-8-yl)amino)-2-ethylphenyl)(4-(2-(((2R,3R,4S,5R,6R)-3,4,5-trihydroxy-6-(hydroxymethyl)tetrahydro-2H-pyran-2-yl)oxy)ethyl)piperazin-1-yl)methanone] | –
22 | 460 nM | COc1ccc(-c2cnc3c(Nc4ccc(C(=O)N5CCN(C(=O)[C@@H]6C[C@@](OC)(C(F)(F)F)CN6)CC5)c(C)c4)nccn23)c(F)c1F [Example 583, (4-(4-((3-(2,3-difluoro-4-methoxyphenyl)imidazo[1,2-a]pyrazin-8-yl)amino)-2-methylbenzoyl)piperazin-1-yl)((2S,4S)-4-methoxy-4-(trifluoromethyl)pyrrolidin-2-yl)methanone hydrochloride] | –
23 | 164 nM | COc1ccc(-c2cnc3c(Nc4ccc(C(=O)N5CCC(C(=O)NC[C@H]6O[C@H](O)[C@H](N)[C@@H](O)[C@@H]6O)CC5)c(C)c4)nccn23)c(F)c1F [Example 584, N-(((2R,3S,4R,5R,6S)-5-amino-3,4,6-trihydroxytetrahydro-2H-pyran-2-yl)methyl)-1-(4-((3-(2,3-difluoro-4-methoxyphenyl)imidazo[1,2-a]pyrazin-8-yl)amino)-2-methylbenzoyl)piperidine-4-carboxamide] | –
